Reference: ChEMBL document CHEMBL5728383, “Isoquinoline ether compounds as mGluR4 allosteric potentiators, compositions, and methods of treating neurological dysfunction” (2021)

molecular target: Metabotropic glutamate receptor 4 (Homo sapiens, UniProt Q14833); experiment: Receptor Activity Assay: The disclosed compounds and compositions can be evaluated for their ability to act as a potentiator of metabotropic glutamate receptor activity, in particular mGluR4 activity, by any suitable known methodology known in the art. For example, Chinese Hamster Ovary (CHO) cells transfected with human mGluR4 or HEK cells co-transfected with rat mGuR4 and the G-protein regulated Inwardly Rectifying Potassium channel (GIRK) were plated in clear bottom assay plates for assay in a Hamamatsu FDSS Fluorometric Plate Reader. The cells were loaded with either a Ca2+-sensitive fluorescent dye or the thallium responsive dye and the plates were washed and placed into a suitable kinetic plate reader. For human mGuR4 assays, a fluorescence baseline was established for 3-5 seconds, the disclosed compounds were then added to the cells, and the response in cells was measured. Approximately two and a half minutes later, a concentration of mGuR4 orthosteric agonist (e.g. glutamate or L-AP4) eliciting approximately 20% (EC20) of the maximal agonist response was added to the cells, and the response was measured. Two minutes later, a concentration of mGluR4 agonist (e.g. glutamate or L-AP4) eliciting 80% (EC80) of the maximal agonist response was added to the cells, and the response was measured. For rat mGuR4/GIRK experiments, a baseline was established for approximately five seconds, disclosed compounds were added, and either an EC20 or EC80 concentration of agonist was added approximately two and one half minutes later.
Sequence (Q14833 whole entry): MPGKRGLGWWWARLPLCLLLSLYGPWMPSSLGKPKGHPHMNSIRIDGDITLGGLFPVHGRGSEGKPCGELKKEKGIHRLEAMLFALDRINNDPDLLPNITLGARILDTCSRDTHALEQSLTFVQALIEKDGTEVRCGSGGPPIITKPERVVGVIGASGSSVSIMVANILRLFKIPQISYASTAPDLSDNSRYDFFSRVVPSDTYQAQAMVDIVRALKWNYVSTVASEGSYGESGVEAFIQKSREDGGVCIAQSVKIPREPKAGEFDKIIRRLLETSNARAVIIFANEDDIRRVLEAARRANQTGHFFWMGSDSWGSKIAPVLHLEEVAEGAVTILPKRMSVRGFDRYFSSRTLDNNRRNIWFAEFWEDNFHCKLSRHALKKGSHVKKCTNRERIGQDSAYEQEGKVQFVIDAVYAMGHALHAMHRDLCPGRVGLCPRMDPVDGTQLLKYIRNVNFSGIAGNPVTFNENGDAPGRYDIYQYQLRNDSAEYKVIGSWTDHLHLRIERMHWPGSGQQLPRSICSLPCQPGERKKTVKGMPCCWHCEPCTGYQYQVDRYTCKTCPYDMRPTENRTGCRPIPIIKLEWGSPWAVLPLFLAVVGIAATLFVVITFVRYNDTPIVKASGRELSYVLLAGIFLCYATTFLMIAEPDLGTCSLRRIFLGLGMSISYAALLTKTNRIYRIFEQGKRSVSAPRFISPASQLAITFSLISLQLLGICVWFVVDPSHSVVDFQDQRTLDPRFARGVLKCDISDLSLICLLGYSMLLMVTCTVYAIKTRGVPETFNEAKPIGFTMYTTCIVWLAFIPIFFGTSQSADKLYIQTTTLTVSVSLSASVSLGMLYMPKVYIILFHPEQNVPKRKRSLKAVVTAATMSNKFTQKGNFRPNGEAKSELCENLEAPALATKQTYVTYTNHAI

In order of falling EC50:
1. C[C@H]1OCC[C@H]1Oc1nccc2cc(Nc3n[nH]c4ncccc34)ccc12  154 nM
2. C[C@@H]1C[C@H](Oc2nccc3cc(Nc4n[nH]c5ncccc45)ccc23)CO1  152 nM
3. c1cnc2[nH]nc(Nc3ccc4c(OCCN5CCOCC5)nccc4c3)c2c1  148 nM
4. c1cnc2[nH]nc(Nc3ccc4c(OCC5COCCO5)nccc4c3)c2c1 (stereo not drawn)  121 nM
5. Fc1cnc2[nH]nc(Nc3ccc4c(OC5CCOCC5)nccc4c3)c2c1  118 nM
6. Fc1cnc2c(Nc3ccc4c(O[C@H]5CCOC5)nccc4c3)n[nH]c2c1  82.3 nM
7. COCCOc1nccc2cc(Nc3n[nH]c4ncc(F)cc34)ccc12  82.3 nM
8. CO[C@H](C)COc1nccc2cc(Nc3n[nH]c4ncccc34)ccc12  77.1 nM
9. COCCOc1nccc2cc(Nc3n[nH]c4ccccc34)ccc12  76.9 nM
10. c1cnc2[nH]nc(Nc3ccc4c(OCC5CCCCO5)nccc4c3)c2c1 (stereo not drawn)  75.2 nM
11. C[C@H]1C[C@H](Oc2nccc3cc(Nc4n[nH]c5ncccc45)ccc23)CO1  70.7 nM
12. COCCOc1nccc2cc(Nc3n[nH]c4cc(F)cnc34)ccc12  69 nM
13. c1cnc2[nH]nc(Nc3ccc4c(O[C@@H]5CCOC5)nccc4c3)c2c1  64 nM
14. C[C@H]1OCC[C@H]1Oc1nccc2cc(Nc3n[nH]c4cccnc34)ccc12  55.9 nM
15. c1cnc2[nH]nc(Nc3ccc4c(OCC5CCOC5)nccc4c3)c2c1 (stereo not drawn)  54.3 nM
16. COCCOc1nccc2cc(Nc3n[nH]c4ncccc34)ccc12  51.5 nM
17. CCOCCOc1nccc2cc(Nc3n[nH]c4ncccc34)ccc12  48.4 nM
18. C[C@@H]1C[C@H](Oc2nccc3cc(Nc4n[nH]c5cccnc45)ccc23)CO1  48.3 nM
19. c1cnc2[nH]nc(Nc3ccc4c(OCC5CCOCC5)nccc4c3)c2c1  45.9 nM
20. c1cnc2[nH]nc(Nc3ccc4c(O[C@H]5CCOC5)nccc4c3)c2c1  44.2 nM
21. c1cc2cc(Nc3n[nH]c4nccnc34)ccc2c(O[C@@H]2CCOC2)n1  43.6 nM
22. c1cnc2c(Nc3ccc4c(OCCN5CCOCC5)nccc4c3)n[nH]c2c1  41.2 nM
23. c1cnc2c(Nc3ccc4c(O[C@H]5CCOC5)nccc4c3)n[nH]c2c1  37.6 nM
24. c1cnc2c(Nc3ccc4c(O[C@@H]5CCOC5)nccc4c3)n[nH]c2c1  36.1 nM
25. Fc1cnc2c(Nc3ccc4c(OCC5COCCO5)nccc4c3)n[nH]c2c1 (stereo not drawn)  35.9 nM
26. COCCOc1nccc2cc(Nc3n[nH]c4nccnc34)ccc12  35.2 nM
27. c1cnc2c(Nc3ccc4c(O[C@@H]5CCCOC5)nccc4c3)n[nH]c2c1  31.9 nM
28. c1cc2cc(Nc3n[nH]c4nccnc34)ccc2c(OCC2COCCO2)n1 (stereo not drawn)  28.5 nM
29. c1cnc2c(Nc3ccc4c(O[C@H]5CCCOC5)nccc4c3)n[nH]c2c1  27.3 nM
30. C[C@H]1C[C@H](Oc2nccc3cc(Nc4n[nH]c5cccnc45)ccc23)CO1  26.9 nM
31. CCOCCOc1nccc2cc(Nc3n[nH]c4cccnc34)ccc12  22.3 nM
32. c1cc2cc(Nc3n[nH]c4nccnc34)ccc2c(O[C@H]2CCOC2)n1  22.1 nM
33. CCOCCOc1nccc2cc(Nc3n[nH]c4nccnc34)ccc12  21.5 nM
34. COCCOc1nccc2cc(Nc3n[nH]c4cccnc34)ccc12  19.9 nM
35. CO[C@H](C)COc1nccc2cc(Nc3n[nH]c4nccnc34)ccc12  17.5 nM
36. c1cc2cc(Nc3n[nH]c4nccnc34)ccc2c(OCC2CCOCC2)n1  16.1 nM
37. c1cnc2c(Nc3ccc4c(OCC5CCCOC5)nccc4c3)n[nH]c2c1 (stereo not drawn)  15.7 nM
38. CO[C@H](C)COc1nccc2cc(Nc3n[nH]c4cccnc34)ccc12  14.5 nM
39. c1cnc2c(Nc3ccc4c(OC5CCOCC5)nccc4c3)n[nH]c2c1  12.6 nM
40. c1cnc2c(Nc3ccc4c(OCC5COCCO5)nccc4c3)n[nH]c2c1 (stereo not drawn)  12.6 nM
41. c1cnc2c(Nc3ccc4c(OCC5CCOC5)nccc4c3)n[nH]c2c1 (stereo not drawn)  12 nM
42. c1cnc2c(Nc3ccc4c(OCC5CCOCC5)nccc4c3)n[nH]c2c1  11.6 nM
43. c1cc2cc(Nc3n[nH]c4nccnc34)ccc2c(OCC2CCOC2)n1 (stereo not drawn)  10.4 nM
